# Measurements published in patent US8968997B2, “Benzoxazole-based fluorescent metal ion indicators” (Life Technologies Corporation, priority 2008, dated 2015).
# Where “and” joins values, the source holds several entries; their conditions need not be identical. Equal values may be shown once.
# Columns and labels:
# [1] = Spectrofluorimetry studies: calcium binding constant (Kd) of ion indicators; conditions: 30 mM MOPS, 100 mM KCl buffers; calculated from 8-10 data points; read-out: Kd(Ca^2+)
# Description: (§1) The excitation and emission spectra of solutions of various ion indicators (concentration 1-2 μM) were recorded in 30 mM MOPS and 100 mM KCl buffers containing 0 to 200 nM free calcium ion. The binding constant values were calculated based on 8-10 data points taken in buffers covering the concentration range appropriate for the Kd value. Spectral curves for derivatives of Compound 7 (with different R substitutents) were recorded using a standard spectrofluorimeter.
# [2] = Spectrofluorimetry studies: excitation and emission spectra and ratiometric response to metal ion binding; type: physicochemical; conditions: for λabs (UV), (nm): indicator 1-2 μM in 30 mM MOPS, 100 mM KCl buffer; for λemiss (nm) / λexcit (nm): position of maxima for two ratiometric peaks, 30 mM MOPS, 100 mM KCl, 0 to 200 nM free calcium ion
# Description: as §1
# FIGS. 1-3 show excitation and emission spectra for several of the tested compounds. […]
# [3] = system: Jurkat T-cell leukemia cultured cells; experiment: Flow cytometry studies: intracellular calcium response of dye-loaded cells after stimulant; type: cell-based; conditions: Jurkat cells loaded with 4 μM cell-permeant compound, 355 nm excitation
# Description: Jurkat T-cell leukemia cultured cells were washed once with Hanks Buffered Salt Solution (HBSS) containing calcium and resuspended in HBSS at a concentration of 2×10^6/ml. A one (1) mL cell suspension was added to a 12×75 mm test tube. A cell-permeant compound (7e or 7f) was added to the cell suspension at a final concentration of 4 μM. The cell/dye mixture was mixed and placed at 37° C. protected from light for 30 minutes. The sample then was washed once with HBSS pre-warmed to 37° C. and the cell pellet was resuspended in one mL warmed HBSS. The sample rested for 15 minutes at 37° C. protected from light. […] Analysis of the data was performed using a dual parameter plot of time versus fluorescence ratio of the emissions as measured by 495/20:424/44 ratio. […] A plot of time versus fluorescence ratio for cells that have been loaded with the tested compound was collected upon addition of ionomycin or CD3 stimulant after baseline measurement. […] For Compound 7e, the ratio of the mean fluorescence as measured yielded an increase of 3.4× with ionomycin stimulation (A), an expected response which was maintained over time. The ratio of the mean fluorescence as measured gave an increase of 2.8× with CD3 stimulation (B), an expected response which decreased slightly over time. […]
Kd [1],"λabs (UV), (nm) [2]",λemiss (nm) [2],λexcit (nm) [2],SMILES,increase of ratio of mean fluorescence (495/20:424/44 emission ratio) after stimulant vs baseline ([3]; 1 μM ionomycin stimulation),increase of ratio of mean fluorescence (495/20:424/44 emission ratio) after stimulant vs baseline ([3]; CD3 stimulation)
290 nM,392 nm,586 nm,392 nm,Cc1ccc(N(CC(=O)O)CC(=O)O)c(OCCOc2cc3nc(/C=C/c4ccc(N(C)C)c5ccccc45)oc3cc2N(CC(=O)O)CC(=O)O)c1 [Compound 7p],–,–
80 nM,413 nm,548 nm,413 nm,Cc1ccc(N(CC(=O)O)CC(=O)O)c(OCCOc2cc3nc(/C=C/c4cc5c6c(c4)CCCN6CCC5)oc3cc2N(CC(=O)O)CC(=O)O)c1 [Compound 7q],–,–
129 nM,373 nm,496 nm,373 nm,Cc1ccc(N(CC(=O)O)CC(=O)O)c(OCCOc2cc3nc(-c4ccc5cc(N(C)C)ccc5c4)oc3cc2N(CC(=O)O)CC(=O)O)c1 [Compound 7r],–,–
156 nM,472 nm,520 nm,472 nm,Cc1ccc(N(CC(=O)O)CC(=O)O)c(OCCOc2cc3nc(-c4cc5cc6c7c(c5oc4=O)CCCN7CCC6)oc3cc2N(CC(=O)O)CC(=O)O)c1 [Compound 7t],–,–

# The next lines start with the molecule.
SMILES,Kd [1],"λabs (UV), (nm) [2]",λemiss (nm) [2],λexcit (nm) [2],increase of ratio of mean fluorescence (495/20:424/44 emission ratio) after stimulant vs baseline ([3]; 1 μM ionomycin stimulation),increase of ratio of mean fluorescence (495/20:424/44 emission ratio) after stimulant vs baseline ([3]; CD3 stimulation)
COc1cc(N(C)C)ccc1-c1nc2cc(OCCOc3cc(C)ccc3N(CC(=O)O)CC(=O)O)c(N(CC(=O)O)CC(=O)O)cc2o1 [Compound 7f],103 nM,363 nm,417-475 nm,363 nm,3.2 ×,2.8 ×
Cc1ccc(N(CC(=O)O)CC(=O)O)c(OCCOc2cc3nc(-c4ccc(N(C)C)cc4O)oc3cc2N(CC(=O)O)CC(=O)O)c1 [Compound 7g],85 nM,363 nm,417-496 nm,363 nm,–,–
Cc1ccc(N(CC(=O)O)CC(=O)O)c(OCCOc2cc3nc(-c4cc5c6c(c4)CCCN6CCC5)oc3cc2N(CC(=O)O)CC(=O)O)c1 [Compound 7h],145 nM,375 nm,435-510 nm,375 nm,–,–
Cc1ccc(N(CC(=O)O)CC(=O)O)c(OCCOc2cc3nc(-c4nc5ccccc5s4)oc3cc2N(CC(=O)O)CC(=O)O)c1 [Compound 7i],309 nM,364 nm,569 nm,361-422 nm,–,–
Cc1ccc(N(CC(=O)O)CC(=O)O)c(OCCOc2cc3nc(-c4cccc(=O)[nH]4)oc3cc2N(CC(=O)O)CC(=O)O)c1 [Compound 7j],146 nM,366 nm,567 nm,349-392 nm,–,–
Cc1ccc(N(CC(=O)O)CC(=O)O)c(OCCOc2cc3nc(-c4cc[n+]([O-])cc4)oc3cc2N(CC(=O)O)CC(=O)O)c1 [Compound 7k],304 nM,357 nm,612 nm,356-425 nm,–,–
Cc1ccc(N(CC(=O)O)CC(=O)O)c(OCCOc2cc3nc(-c4ccc5nonc5c4)oc3cc2N(CC(=O)O)CC(=O)O)c1 [Compound 7l],157 nM,330 nm and 440 (non- nm,490 nm,324-364 nm,–,–
